# Measured values reported in patent US10254273B2, “Method and kit for assessment of sodium channel-related anti- or pro-arrhythmic potential of compounds” (RUPRECHT-KARLS-UNIVERSITAET HEIDELBERG, priority 2014, dated 2019).
# Target: T1, cardiac sodium channels Nav1.5 in the intercalated discs of cardiomyocytes (Mus musculus, UniProt Q9JJV9)
# T1 construct: The heart was harvested and perfused in the Langendorff system; endogenous in cells; host or cells: primary adult mouse cardiomyocytes isolated from heart by Langendorff perfusion
# T1 sequence (Q9JJV9 whole entry, the tested form may be a part): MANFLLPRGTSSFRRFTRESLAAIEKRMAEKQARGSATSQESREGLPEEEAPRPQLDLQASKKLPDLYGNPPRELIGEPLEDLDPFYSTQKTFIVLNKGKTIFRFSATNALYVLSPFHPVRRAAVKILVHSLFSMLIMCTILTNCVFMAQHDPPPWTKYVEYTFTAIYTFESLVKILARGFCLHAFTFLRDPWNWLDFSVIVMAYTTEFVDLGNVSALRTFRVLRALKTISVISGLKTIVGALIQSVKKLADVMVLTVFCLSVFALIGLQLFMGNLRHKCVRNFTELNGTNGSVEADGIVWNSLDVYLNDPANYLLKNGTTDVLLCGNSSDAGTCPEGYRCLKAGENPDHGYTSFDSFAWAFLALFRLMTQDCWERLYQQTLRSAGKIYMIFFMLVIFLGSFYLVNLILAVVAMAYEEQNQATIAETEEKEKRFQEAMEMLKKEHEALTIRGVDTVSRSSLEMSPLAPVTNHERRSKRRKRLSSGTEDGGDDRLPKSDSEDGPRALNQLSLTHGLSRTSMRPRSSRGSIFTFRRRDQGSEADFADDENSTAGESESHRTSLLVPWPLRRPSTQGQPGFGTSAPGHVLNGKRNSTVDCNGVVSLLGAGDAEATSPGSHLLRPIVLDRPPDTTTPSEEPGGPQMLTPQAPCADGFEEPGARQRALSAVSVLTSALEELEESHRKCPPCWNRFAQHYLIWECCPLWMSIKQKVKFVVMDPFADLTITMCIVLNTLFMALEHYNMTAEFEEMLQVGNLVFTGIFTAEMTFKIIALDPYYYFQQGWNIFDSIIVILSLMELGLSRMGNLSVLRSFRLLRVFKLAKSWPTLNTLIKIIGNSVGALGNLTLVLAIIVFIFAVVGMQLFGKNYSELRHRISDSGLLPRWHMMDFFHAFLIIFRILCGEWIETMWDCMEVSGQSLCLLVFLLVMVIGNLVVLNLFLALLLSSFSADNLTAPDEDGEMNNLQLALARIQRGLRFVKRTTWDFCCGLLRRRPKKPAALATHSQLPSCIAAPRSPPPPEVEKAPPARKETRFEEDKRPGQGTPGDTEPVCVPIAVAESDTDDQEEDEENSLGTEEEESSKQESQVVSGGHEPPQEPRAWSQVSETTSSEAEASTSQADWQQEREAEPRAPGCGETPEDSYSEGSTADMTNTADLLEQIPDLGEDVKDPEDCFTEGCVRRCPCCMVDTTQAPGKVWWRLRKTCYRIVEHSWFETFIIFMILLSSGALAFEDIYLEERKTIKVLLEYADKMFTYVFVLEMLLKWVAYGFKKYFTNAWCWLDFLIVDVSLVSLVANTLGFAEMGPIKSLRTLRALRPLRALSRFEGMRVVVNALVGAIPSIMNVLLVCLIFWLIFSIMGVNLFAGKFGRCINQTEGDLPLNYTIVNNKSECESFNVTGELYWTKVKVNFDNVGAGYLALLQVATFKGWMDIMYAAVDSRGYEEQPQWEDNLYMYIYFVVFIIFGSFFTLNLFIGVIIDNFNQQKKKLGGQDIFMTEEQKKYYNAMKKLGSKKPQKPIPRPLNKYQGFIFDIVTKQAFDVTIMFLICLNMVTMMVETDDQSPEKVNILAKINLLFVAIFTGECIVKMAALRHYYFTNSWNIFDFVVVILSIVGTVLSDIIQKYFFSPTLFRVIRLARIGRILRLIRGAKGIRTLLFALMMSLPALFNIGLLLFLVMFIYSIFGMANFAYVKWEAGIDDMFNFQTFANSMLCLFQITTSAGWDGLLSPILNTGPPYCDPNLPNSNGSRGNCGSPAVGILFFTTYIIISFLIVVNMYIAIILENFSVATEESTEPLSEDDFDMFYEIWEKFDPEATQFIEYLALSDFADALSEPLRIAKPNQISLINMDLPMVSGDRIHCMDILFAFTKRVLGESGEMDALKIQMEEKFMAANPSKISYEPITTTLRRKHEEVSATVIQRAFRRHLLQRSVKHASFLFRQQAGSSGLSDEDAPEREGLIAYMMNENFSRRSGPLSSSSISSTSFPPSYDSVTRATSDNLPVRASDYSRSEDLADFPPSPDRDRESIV
# Assay: Nav1.5 density change in intercalated discs of cardiomyocytes (immunocytochemistry, confocal microscopy)
# Assay type: cell-based
# Details: test compound at a concentration of 100 μM or higher vs. untreated sample, p<0.05
# Method: Briefly, the mice were injected with 200 IU heparin i.p. prior to sacrifice. The thoracic chamber was opened and a cannula with perfusion solution was inserted from the atria. The heart was harvested and perfused in the Langendorff system with Perfusion Buffer at 37° C. for 5 min, followed by Digestion Buffer until the heart muscle was pale and some signs of extracellular matrix dissociation appeared. The heart was perfused for additional 5 min with Perfusion Buffer to stop the dissociation. The cardiomyocytes were mechanically dissociated in TB-A and then plated on ECM-coated (Sigma cat. no. E-1270) petri dish (Zell-Kontakt cat. no. 5160-30). […]
# Confocal images of red and green immunofluorescence of stained cardiomyocytes were acquired, e.g. on a Leica confocal laser scanning unit TCS NT, which is coupled to a Leica DM IRB microscope. […] Fluorescence signals of Nav1.5 staining were recorded at 20%, 50% and 80% laser intensity, and fluorescence signals of cadherin was recorded at 80% laser intensity to generate the Region of Interest (ROI) (modified from Yampolsky et al., 2010, a). All images were digitally saved and later processed with Image) (NIH, Bethesda, Md., USA) software using proprietary quantification methods and standard Image) plug-ins.
# ROI were set as defined by the fluorescence signals of the cadherin staining, which represented the intercalated discs. […]
structure (smiles),measurement,value
O=C(NCC1CCCCN1)c1cc(OCC(F)(F)F)ccc1OCC(F)(F)F (stereo not shown) [flecainide],change of the Nav1.5 density in comparison to the untreated sample,significant change
